# Reference: publication PMC9237828, “Chemically Tuning Resveratrol for the Effective Killing of Gram-Positive Pathogens” (Journal of Natural Products, 2022)
# What was measured:
# E. faecium LMG16003 = assay: Combined action with antibiotics (MIC reduction, checkerboard FICI); format: cell-based
# S. aureus LMG8224 = assay: as above; format: cell-based, Staphylococcus aureus; settings: for MIC of antibiotic in combination with RES: RES at 4 μM; for FICI, antibiotic with 15 / FICI, antibiotic with 17: fractional inhibitory concentration index, EUCAST, * means relevant FICI values
# C. botulinum CECT551 = assay: microbe, parasite or virus in culture; format: cell-based; settings: Clostridium botulinum, CECT551, 24 h, read-out: Minimal Inhibition Concentration (MIC) C. botulinum CECT551
# C. beijerinckii B504 = assay: MIC test, anaerobes; format: cell-based; settings: Clostridium beijerinckii, B504, 24 h; read-out: Minimal Inhibition Concentration (MIC) C. beijerinckii B504
# Protocol: (§1) The resveratrol derivatives were serially diluted in cMHB (BD Difco) in 96-well microplates. Plates were then inoculated with the indicator bacteria at a final concentration of 5 × 10^5 CFU/mL and incubated at 37 °C for 20 h. In the case of the anaerobic bacteria (Clostridium and Clostridioides), the test was performed following the recommendation of CLSI for anaerobes[77] but using RCM medium instead of cMHB. The cultures were cultivated inside an anaerobic chamber at 37 °C for 24 h. All the tests were performed in triplicate.
# C. tetani CECT4629 = assay: microbe, parasite or virus in culture; format: cell-based; settings: Clostridium tetani, CECT4629, 24 h, read-out: Minimal Inhibition Concentration (MIC) C. tetani CECT4629
# [1] = tested on: panel of aerobic and anaerobic Gram-positive bacteria; assay: organism not typed; format: cell-based
# B. cereus ATCC14579 = assay: microbe, parasite or virus in culture; format: cell-based, Bacillus cereus; settings: Bacillus cereus, ATCC14579, 20 h, read-out: Minimal Inhibition Concentration (MIC) B. cereus ATCC14579
# B. cereus ATCC10987 = assay: microbe, parasite or virus in culture; format: cell-based, Bacillus cereus; settings: Bacillus cereus, ATCC10987, 20 h, read-out: Minimal Inhibition Concentration (MIC) B. cereus ATCC10987
# C. perfringens CECT376 = assay: microbe, parasite or virus in culture; format: cell-based; settings: Clostridium perfringens, CECT376, 24 h, read-out: Minimal Inhibition Concentration (MIC) C. perfringens CECT376
# C. ihumii AP5 = assay: MIC test, anaerobes; format: cell-based; settings: 24 h; read-out: Minimal Inhibition Concentration (MIC) C. ihumii AP5
# Protocol: as §1
Compound,MIC of antibiotic alone (Ab) (E. faecium LMG16003),MIC of antibiotic in combination with 17 (S. aureus LMG8224; 17 at 2 μM),MIC of antibiotic in combination with 17 (S. aureus LMG8224; 17 at 4 μM),MIC of antibiotic in combination with RES (S. aureus LMG8224),MIC of antibiotic alone (Ab) (S. aureus LMG8224),"FICI, antibiotic with 17 (S. aureus LMG8224)",antibacterial activity against the Gram-positive panel [1],other results
"NCC[C@H](O)C(=O)N[C@@H]1C[C@H](N)[C@@H](O[C@H]2O[C@H](CN)[C@@H](O)[C@H](O)[C@H]2O)[C@H](O)[C@H]1O[C@H]1O[C@H](CO)[C@@H](O)[C@H](N)[C@H]1O [Ami, amikacin]",>32 µM,3.3 ± 0.5 µM,0.8 ± 0.1 µM,8 ± 0 µM,8 ± 0 µM,0.60,–,"MIC of antibiotic in combination with 15 (S. aureus LMG8224; 15 at 2 μM): 2 ± 0 µM; MIC of antibiotic in combination with 15 (S. aureus LMG8224; 15 at 4 μM): 0.5 ± 0 µM; FICI, antibiotic with 15 (S. aureus LMG8224): 0.31"
"NC[C@H]1O[C@H](O[C@H]2[C@H](O)[C@@H](O[C@H]3O[C@H](CO)[C@@H](O)[C@H](N)[C@H]3O)[C@H](N)C[C@@H]2N)[C@H](O)[C@@H](O)[C@@H]1O [Kan, kanamycin]",>32 µM,2 ± 0 µM,1 ± 0 µM,4 ± 0 µM,4 ± 0 µM,0.75,–,"MIC of antibiotic in combination with 17 (E. faecium LMG16003; 17 at 4 μM): 32 ± 0 µM; FICI, antibiotic with 17 (E. faecium LMG16003; fractional inhibitory concentration index, EUCAST, * means relevant FICI values): 1*; MIC of antibiotic in combination with 15 (S. aureus LMG8224; 15 at 2 μM): 2 ± 0 µM; MIC of antibiotic in combination with 15 (S. aureus LMG8224; 15 at 4 μM): 0.6 ± 0.1 µM; FICI, antibiotic with 15 (S. aureus LMG8224): 0.41"
"[H]/N=C(/N)N[C@H]1[C@H](O)[C@@H](O)[C@H](O[C@@H]2O[C@@H](C)[C@](O)(C=O)[C@H]2O[C@@H]2O[C@@H](CO)[C@H](O)[C@@H](O)[C@@H]2NC)[C@@H](N/C(N)=N\[H])[C@@H]1O [Str, streptomycin]",32 ± 0 µM,8 ± 0 µM,4 ± 0 µM,16 ± 0 µM,16 ± 0 µM,0.75,–,–
CCCCCCCC(=O)OC[C@H]1O[C@@H](Oc2cc(O)cc(/C=C/c3ccc(O)cc3)c2)[C@H](O)[C@@H](O)[C@@H]1O [compound 3],–,–,–,–,–,–,–,MIC (C. botulinum CECT551): 32 µM; MIC (C. beijerinckii B504): 32 µM; MIC (C. tetani CECT4629): 21.3 ± 5.3 µM
"O=S(=O)(O)Oc1ccc(/C=C/c2cc(O)cc(OS(=O)(=O)O)c2)cc1 [compound 7, Resveratrol 3,4′-disulfate]",–,–,–,–,–,–,did not show antibiotic activity,–
CCOc1cc(O)cc(/C=C/c2ccc(O)cc2)c1 [compound 10],–,–,–,–,–,–,–,MIC (B. cereus ATCC14579): 128 µM; MIC (B. cereus ATCC10987): 128 µM
CC(C)(C)[Si](C)(C)Oc1cc(/C=C/c2ccc(O)cc2)cc(O[Si](C)(C)C(C)(C)C)c1 [compound 18],–,–,–,–,–,–,not active or displayed very low antibacterial activity,–
CC(C)(C)[Si](C)(C)Oc1ccc(/C=C/c2cc(O)cc(O[Si](C)(C)C(C)(C)C)c2)cc1 [compound 19],–,–,–,–,–,–,not active or displayed very low antibacterial activity,MIC (C. botulinum CECT551): 53.3 ± 10.6 µM; MIC (C. perfringens CECT376): 128 µM; MIC (C. beijerinckii B504): 32 µM; MIC (C. ihumii AP5): 128 µM; MIC (C. tetani CECT4629): 5.3 ± 1.3 µM
CC[Si](CC)(CC)Oc1cc(/C=C/c2ccc(O)cc2)cc(O[Si](CC)(CC)CC)c1 [compound 21],–,–,–,–,–,–,not active or displayed very low antibacterial activity,–
